Assay results from paper PMC3362676 (Cellular Signalling, 2012).
Ends that are not written are not given here. Peptide text beside a SMILES is read from it.

Tests used:
kB2R = kB2R (Homo sapiens, UniProt P30411); conditions: HEK-kB2R
CPM = assay: HEK cells stably expressing CPM, in PBS; conditions: human, 37 °C, up to 30 min
[1] = ref [2], [9], [21], [24]; cited from earlier work
[2] = test system: HEK cells stably expressing kB1R; conditions: HEK cells expressing only the kB1R; 10 μM peptide in PBS; 30 min, 37 °C; HPLC

kB2R, sequence (P30411 whole entry): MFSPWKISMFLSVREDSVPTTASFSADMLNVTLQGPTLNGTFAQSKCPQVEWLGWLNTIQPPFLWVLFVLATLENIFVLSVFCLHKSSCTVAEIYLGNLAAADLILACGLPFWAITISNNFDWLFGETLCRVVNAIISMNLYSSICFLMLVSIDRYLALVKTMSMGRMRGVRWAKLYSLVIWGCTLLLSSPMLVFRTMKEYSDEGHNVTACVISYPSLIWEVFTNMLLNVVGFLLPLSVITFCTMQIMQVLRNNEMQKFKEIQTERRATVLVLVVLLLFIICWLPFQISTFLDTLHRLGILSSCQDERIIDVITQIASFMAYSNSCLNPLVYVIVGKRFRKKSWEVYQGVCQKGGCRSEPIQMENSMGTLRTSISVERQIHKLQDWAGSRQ

Compound | cleaved bond (CPM) | lifetime in vivo [1] | further results
N=C(N)NCCC[C@H](NC(=O)[C@H](Cc1ccccc1)NC(=O)[C@@H]1CCCN1C(=O)[C@H](CO)NC(=O)[C@H](Cc1ccccc1)NC(=O)CNC(=O)[C@@H]1CCCN1C(=O)[C@@H]1CCCN1C(=O)[C@@H](N)CCCNC(=N)N)C(=O)O [BK, Bradykinin] (H-RPPGFSPFR-OH) |  |  | maximal ERK1/2 phosphorylation maintained from 40 – 60 min (kB2R; 1 μM BK, 40 – 60 min): 40%
NCCCC[C@H](N)C(=O)N[C@@H](CCCN=C(N)N)C(=O)N1CCC[C@H]1C(=O)N1CCC[C@H]1C(=O)NCC(=O)N[C@@H](Cc1ccccc1)C(=O)N[C@@H](CO)C(=O)N1CCC[C@H]1C(=O)N[C@@H](Cc1ccccc1)C(=O)N[C@@H](CCCN=C(N)N)C(=O)O [KD, Kallidin] |  | lower than 30 seconds | maximal ERK1/2 activation still remaining at 40 min (kB2R; 1 μM KD, 40 min): 80%
NC(N)=NCCC[C@H](NC(=O)[C@H](Cc1ccccc1)NC(=O)[C@@H]1CCCN1C(=O)[C@H](CO)NC(=O)[C@H](Cc1ccccc1)NC(=O)CNC(=O)[C@@H]1CCCN1C(=O)[C@@H]1CCCN1C(=O)[C@@H](N)CCCN=C(N)N)C(=O)O [BK, Bradykinin] (H-RPPGFSPFR-OH) |  | lower than 30 seconds | hydrolysis of peptide [2]: no detectable hydrolysis

Further lines, with some results ahead:

cleaved bond (CPM) | Compound | lifetime in vivo [1] | further results
Phe-Arg9, 30 min | RPPGFSPFR |  | 
Phe-Lys10, 30 min | KRPPGFSPFK |  | 
Phe-Lys9, 30 min | RPPGFSPFK |  | 
